EP0251827A2, “New cyclic ether derivatives, their preparation and their use” (Sankyo Company Limited, priority 1986, dated 1988)

Tested on: PAF-induced hypotension
Experiment: Inhibition of PAF-induced hypotension
Format: in vivo, rats of the Wistar-Imamichi strain
Details: Rattus norvegicus, iv; 50% inhibitory dose from dose-response curve for inhibition of PAF-induced hypotension; rats; read-out: Inhibition of Hypotension ID50
Procedure: The test animals employed were rats of the Wistar-Imamichi strain, each weighing between 350 and 450 g.
Under Inactin anesthesia (90 mg/kg administered intraperitoneally) the left femoral artery and vein of each test animal were cannulated to enable the arterial blood pressure to be monitored continuously and for drug administration, respectively. At intervals of about 5 minutes, each animal was given by intravenous injection 10 ng/kg of synthetic I-C16:0 PAF until a steady hypotensive response was achieved. At this time, the drug to be tested was administered by intravenous injection in doses increasing cumulatively by a factor of 4. Within I minute of this injection, a further 10 ng/kg of the IC16:0 PAF was administered. The hypotensive response to PAF was inhibited by the test drug in a dose-related manner.
The PAF was administered in the form of a solution in physiological saline containing 0.25% w/v bovine serum albumin. The test drugs were dissolved in physiological saline containing 20% v/v ethanol.
The 50% inhibitory dose (ID 50 ) was calculated from the dose-response curve constructed for the inhibition of PAF-induced hypotension.
This test was carried out using compounds of the invention, as well as the prior art compound CV-3988, disclosed in US Patent No. 4,408,052 and represented by the foregoing formula (B).

SMILES: CCCCCCCCCCCCCCCCCCNC(=O)OCC(COP(=O)([O-])OCC[n+]1ccsc1)OC (stereo not shown) [CV - 3988]
- ED50: 0.42 mg/kg
